Results published in US20240261268A1, “METHODS OF SLOWING AN INCREASE IN BRAIN VENTRICULAR VOLUME” (VANDA PHARMACEUTICALS INC., priority 2022, published 2024).

Tests used:
[1] = test system: adult subjects with relapsing MS; assay: 12-lead ECG heart rate and first-dose monitoring on Day 1; type: in vivo, human
Protocol: The incidence of treatment-emergent heart rate and rhythm (including hypotension) AESIs on Day 1 was higher in the ponesimod 20 mg arm (2.1%) than in the teriflunomide 14 mg arm (0.4%). However, the overall incidence of first dose AESI on Day 1 was low (2.1%) in ponesimod. None of these events were serious nor led to permanent discontinuation of study treatment. Discharge criteria at 4 hours post-dose were met for ca. 99% of subjects. […] ECG HR effect: nadir at 2 hours post-dose (siponimod—3-4 hours, fingolimod—around by 6 hours). Low incidence of low HR outliers (post-dose HR≤40 bpm), all 3 of them with a pre-treatment HR of <55 bpm, which is a known risk factor for post-dose bradycardia with SIP receptor modulators.
The mean heart rate reduction compared to pre-dose reached a maximum for ponesimod 20 mg at 2-hours post dose, −8.7 bpm compared to −1.7 bpm for teriflunomide 14 mg (FIG. 2).

[2] = test system: adult subjects with relapsing MS; assay: MRI-based scaled brain ventricular volume (lateral + 3rd ventricle / ICV); type: in vivo, human; details: p<0.001 vs baseline, ponesimod n=428, teriflunomide n=427
Text: Efficacy variable/timepoint: The endpoint was increase in ventricular volume up to the end of study (EOS). All available data up to EOS, regardless of treatment discontinuation was included (ITT approach).
Ventricular Volume (VV) data were obtained from MRI images from patients that participated in the OPTIMUM study. Data were obtained from those patients who had MRI imagines at baseline week 60 and week 108. One pre-requisite was to select only those patients who had all images completed.
Ventricular volume was estimated from MRI images collected at baseline (BL), week 60 and week 108 for 428 subjects treated with ponesimod and 427 with teriflunomide. Lesions were identified using T2-weighted and Proton Density (PD) MRIs. Ventricles were segmented using lesion-filled T1 images using with the longitudinal stream in FreeSurfer 7. For each subject, scaled ventricular volume (V) was computed as the sum of lateral and 3rd ventricle volumes divided by the intracranial volume (ICV) and expressed as a percentage. Average V (V) and average change in V (ΔV) from baseline at weeks 60 and 108 were compared across treatment arms. Ventricular volumes were correlated with Multiple Sclerosis Functional Composite (MSFC), Paced Auditory Serial Addition Test (PASAT), Average Timed 25 Foot Walk (T25FW), Average 9-Hole Peg Test (9-HPT), Single Digit Modality Test (SDMT), FSIQ-RMS and Expanded Disability Score (EDSS).

[3] = test system: adult subjects with relapsing MS; assay: Phase III study: premature treatment discontinuation and deaths; type: in vivo; details: ponesimod 20 mg, teriflunomide 14 mg
Protocol: A total of 1468 subjects were screened. Of those, 1133 subjects were randomized (567 to ponesimod 20 mg and 566 to teriflunomide 14 mg) across 162 sites in 28 countries, and 1131 subjects received at least one dose of study drug. The disposition of subjects is summarized in Table 1 and a summary of reasons (primary reason) for treatment discontinuation are shown in Table 2. Overall treatment and study discontinuation were balanced across both treatment arms. A total of 6.5% and 2.5% of the subjects discontinued due to AEs or tolerability related reasons in ponesimod 20 mg and teriflunomide 14 mg, respectively, while 1.9% and 4.3% discontinued due to efficacy related reasons. There were 2 deaths reported during the study—both on teriflunomide 14 mg.

[4] = test system: adult subjects with relapsing MS; assay: Phase III study ponesimod 20 mg vs teriflunomide 14 mg: treatment-emergent adverse events (Safety Set)
Protocol: A prospective, multicenter, randomized, double-blind, active controlled, parallel-group, phase III, superiority study was conducted.
The treatment period consisted of an up-titration period (from Day 1 to 14) and a maintenance period (Day 15 until EOT).
To reduce the first-dose effect of ponesimod, an up-titration scheme was implemented from Day 1 to Day 14: • Days 1 and 2; 2 mg. • Days 3 and 4; 3 mg. • Days 5 and 6; 4 mg. • Day 7; 5 mg. • Day 8; 6 mg. • Day 9; 7 mg. • Day 10; 8 mg. • Day 11; 9 mg. • Days 12, 13, and 14; 10 mg. • Day 15 until EOT; 20 mg.
The Safety Set (SAF) included all randomized subjects who received at least one dose of study treatment. Subjects were analyzed based on actual treatment taken, not randomized treatment.

[5] = Day 1, ponesimod N=565, teriflunomide N=566, Safety Set
[6] = ponesimod 20 mg N=565, teriflunomide 14 mg N=566, Safety Set
[7] = ponesimod 20 mg, teriflunomide 14 mg
[8] = treatment-emergent, ponesimod 20 mg N=565, teriflunomide 14 mg N=566, Safety Set

C/C(O)=C(\C#N)C(=O)Nc1ccc(C(F)(F)F)cc1 [teriflunomide, reference compound]
Mean heart rate reduction compared to pre-dose (maximum) ([1]; Day 1, 2 hours post dose, 12-lead ECG): −1.7 bpm | Subjects with asymptomatic post-dose HR≤40 bpm ([1]; Day 1, all had pre-treatment HR <55 bpm): none | Average change in scaled ventricular volume from baseline (Δ60V), percentage of ICV ([2]; week 60): 0.065% | Average change in scaled ventricular volume from baseline (Δ108V), percentage of ICV ([2]; week 108): 0.124% | Subjects discontinued due to AEs or tolerability related reasons [3]: 2.5% | Incidence of treatment-emergent heart rate and rhythm (including hypotension) AESIs on Day 1 ([4]; Day 1, ponesimod 20 mg arm, teriflunomide 14 mg arm): 0.4% | AESI effect on heart rate and rhythm (including hypotension) on Day 1: Subjects with at least one AE [4, 5]: 2(0.4) n (%) | AESI heart rate and rhythm on Day 1, PT: Atrioventricular block first degree [4, 5]: 0 n (%) | AESI heart rate and rhythm on Day 1, PT: Bradycardia [4, 5]: 0 n (%) | AESI heart rate and rhythm on Day 1, PT: Bundle branch block left [4, 5]: 0 n (%) | AESI heart rate and rhythm on Day 1, PT: Bundle branch block right [4, 5]: 0 n (%) | AESI heart rate and rhythm on Day 1, PT: Defect conduction intraventricular [4, 5]: 0 n (%) | AESI heart rate and rhythm on Day 1, PT: Electrocardiogram QT prolonged [4, 5]: 1(0.2) n (%) | AESI heart rate and rhythm on Day 1, PT: Presyncope [4, 5]: 1(0.2) n (%) | AESI heart rate and rhythm on Day 1, PT: Sinus arrhythmia [4, 5]: 0 n (%) | AESI heart rate and rhythm on Day 1, PT: Sinus bradycardia [4, 5]: 0 n (%) | Treatment-emergent AESI: Infection ([4]; only if serious or severe, ponesimod 20 mg N=565, teriflunomide 14 mg N=566, Safety Set): 5(0.9) n (%) | TEAEs leading to premature discontinuation of study drug: Subjects with at least one AE [4, 6]: 34(6.0) n (%) | TEAEs leading to premature discontinuation, SOC: Blood and lymphatic system disorders [4, 6]: 2(0.4) n (%) | TEAEs leading to premature discontinuation, SOC: Cardiac disorders [4, 6]: 2(0.4) n (%) | TEAEs leading to premature discontinuation, SOC: Eye disorders [4, 6]: 0 n (%) | TEAEs leading to premature discontinuation, SOC: Gastrointestinal disorders [4, 6]: 4(0.7) n (%) | TEAEs leading to premature discontinuation, SOC: General disorders and administration site conditions [4, 6]: 2(0.4) n (%) | TEAEs leading to premature discontinuation, SOC: Hepatobiliary disorders [4, 6]: 2(0.4) n (%) | TEAEs leading to premature discontinuation, SOC: Investigations [4, 6]: 10(1.8) n (%) | TEAEs leading to premature discontinuation, SOC: Musculoskeletal and connective tissue disorders [4, 6]: 1(0.2) n (%) | TEAEs leading to premature discontinuation, SOC: Neoplasms benign, malignant and unspecified (incl cysts and polyps) [4, 6]: 1(0.2) n (%) | TEAEs leading to premature discontinuation, SOC: Nervous system disorders [4, 6]: 4(0.7) n (%) | TEAEs leading to premature discontinuation, SOC: Pregnancy, puerperium and perinatal conditions [4, 6]: 3(0.5) n (%) | TEAEs leading to premature discontinuation, SOC: Psychiatric disorders [4, 6]: 1(0.2) n (%) | TEAEs leading to premature discontinuation, SOC: Reproductive system and breast disorders [4, 6]: 1(0.2) n (%) | TEAEs leading to premature discontinuation, SOC: Respiratory, thoracic and mediastinal disorders [4, 6]: 0 n (%) | TEAEs leading to premature discontinuation, SOC: Skin and subcutaneous tissue disorders [4, 6]: 2(0.4) n (%) | TEAEs leading to premature discontinuation, SOC: Social circumstances [4, 6]: 1(0.2) n (%) | TEAEs leading to premature discontinuation, SOC: Surgical and medical procedures [4, 6]: 1(0.2) n (%) | TEAEs leading to premature discontinuation, SOC: Vascular disorders [4, 6]: 0 n (%) | Treatment-emergent AESI: Effect on heart rate and rhythm (including hypotension) [4, 6]: 24(4.2) n (%) | Treatment-emergent AESI: Hepatobiliary disorders/Liver enzyme abnormality [4, 6]: 82(14.5) n (%) | Treatment-emergent AESI: Herpetic infection [4, 6]: 27(4.8) n (%) | Treatment-emergent AESI: Hypertension [4, 6]: 51(9.0) n (%) | Treatment-emergent AESI: Macular edema [4, 6]: 1(0.2) n (%) | Treatment-emergent AESI: Non-skin malignancy [4, 6]: 1(0.2) n (%) | Treatment-emergent AESI: Pulmonary events [4, 6]: 15(2.7) n (%) | Treatment-emergent AESI: Seizure [4, 6]: 1(0.2) n (%) | Treatment-emergent AESI: Skin malignancy [4, 6]: 1(0.2) n (%) | AESI category hepatobiliary disorders/liver enzyme abnormality [4, 7]: 14.5% | AESI category hypertension [4, 7]: 9.0% | AESI category pulmonary events [4, 7]: 2.7% | Proportion of subjects who experienced at least one SAE [4, 7]: 8.1% | Proportion of subjects who experienced at least one TEAE [4, 7]: 88.2% | TEAE: ALT increased [4, 7]: 9.4% | TEAE: headache [4, 7]: 12.7% | TEAE: nasopharyngitis [4, 7]: 16.8% | TEAE: upper respiratory tract infection [4, 7]: 10.4% | TEAEs leading to premature treatment discontinuation [4, 7]: 6.0% | Subjects with at least one AE [4, 8]: 499(88.2) n (%) | Subjects with at least one AE leading to study drug discontinuation [4, 8]: 34(6.0) n (%) | Subjects with at least one Drug-Related AE [4, 8]: 238(42.0) n (%) | Subjects with at least one Fatal AE [4, 8]: 2(0.4) n (%) | Subjects with at least one Serious AE [4, 8]: 46(8.1) n (%) | Subjects with at least one Severe AE [4, 8]: 26(4.6) n (%)
